ChEMBL document CHEMBL4483862, “Open-source discovery of chemical leads for next-generation chemoprotective antimalarials” (2018)
pIC50: −log10 of the molar value.

Test system: Plasmodium berghei
Test: Luciferase/luciferin-expressing antifolate-resistant parasites were used to infect a culture of HepG2 cells that were pre-incubated with compounds. Infected hepatocytes emit light due to the luciferase reaction. Assay results are presented as the percent inhibition of light emission compared to control. […]
Type: functional
Conditions: sporozoite; for IC90: read-out: LUCIFERASE INFECTION ASSAY - IC90
[1] = read-out: LUCIFERASE INFECTION ASSAY - IC50

SMILES	IC90 [µM]	pIC50 [1]	also measured
CN1CCN(c2ccc(-c3cn4c(-c5ccc(CO)cc5)cnc4cn3)cc2)CC1	> 8.26		pIC50 (PBLUC_HILL_SLOPE 2.22, PBLUC_R_SQUARED 0.0391, read-out: LUCIFERASE INFECTION ASSAY - IC50): < 5.08
Cc1ccc(C(=O)c2c(NC(=O)CSc3nc4ccccc4n3CC(C)C)sc3c2CCCC3)cc1	> 10		pIC50 (FFLUC_HILL_SLOPE 15.8, FFLUC_R_SQUARED 0.569, HEPG2TOX_HILL_SLOPE 0.459, HEPG2TOX_R_SQUARED 0.518, PBLUC_HILL_SLOPE 11.3, PBLUC_R_SQUARED 0.271, read-out: LUCIFERASE INFECTION ASSAY - IC50): < 5.00
CC(=O)OC1CCC2(C)C3CCC4(C)C(C5=CC(=O)OC5)CCC4(O)C3CCC2(O)C1 (centres undefined)	> 7.63		pIC50 (HEPG2TOX_HILL_SLOPE 2.67, HEPG2TOX_R_SQUARED 0.733, PBLUC_HILL_SLOPE 2.15, PBLUC_R_SQUARED 0.208, read-out: LUCIFERASE INFECTION ASSAY - IC50): 5.52
CC(C)(O)C#Cc1ccc(/C=N/Nc2ccc(I)cc2)cc1	> 8.16		pIC50 (PBLUC_HILL_SLOPE 9.96, PBLUC_R_SQUARED 0.415, read-out: LUCIFERASE INFECTION ASSAY - IC50): 5.15
O=C(CSc1nc2cc(S(=O)(=O)Nc3ccccc3Cl)ccc2o1)NCc1ccccc1	> 10	< 5.00	
CC(C)c1ccc(/C=C/c2ccc(=O)[nH]n2)cc1	0.563		pIC50 (HEPG2TOX_HILL_SLOPE 1.26, HEPG2TOX_R_SQUARED 0.973, PBLUC_HILL_SLOPE 20.6, PBLUC_R_SQUARED 0.746, read-out: LUCIFERASE INFECTION ASSAY - IC50): 6.30
COc1ccc2nc(-c3ccccc3)cc(NCCN(C)C)c2c1	> 10.3		pIC50 (PBLUC_HILL_SLOPE 1.97, PBLUC_R_SQUARED 0.162, read-out: LUCIFERASE INFECTION ASSAY - IC50): 5.34
CC(Sc1nnc(-c2ccc[nH]2)o1)C(=O)c1ccc(C(C)(C)C)cc1 (centres undefined)	> 10		pIC50 (PBLUC_HILL_SLOPE 11.5, PBLUC_R_SQUARED 0.42, read-out: LUCIFERASE INFECTION ASSAY - IC50): 5.05
Cc1cc(C(=O)CN2C(=O)NC(C)(c3ccc(C(C)(C)C)cc3)C2=O)c(C)n1C (centres undefined)	> 10	< 5.00	
Clc1ccc2c(NC3CCN(Cc4ccccc4)CC3)ccnc2c1	8.05		pIC50 (HEPG2TOX_HILL_SLOPE 11.4, HEPG2TOX_R_SQUARED 0.805, PBLUC_HILL_SLOPE 13.2, 4.09, PBLUC_R_SQUARED 0.263, 0.797, read-out: LUCIFERASE INFECTION ASSAY - IC50): 5.22
Cc1nc(C(=O)N2CCc3c(c(C(=O)NC4CCCC4)nn3CC(C)C)C2)cs1	2.9		pIC50 (PBLUC_HILL_SLOPE 2.42, PBLUC_R_SQUARED 0.681, read-out: LUCIFERASE INFECTION ASSAY - IC50): 5.93
CN1CCN(S(=O)(=O)c2ccc(SCC3CCCCC3)nc2)CC1	> 10	< 5.00	
CC(C)N(C(=O)COn1nnc2ccc(S(=O)(=O)N(C)C)cc21)C(C)C	> 10	< 5.00	
CC(C)(C)c1cc(-c2nccs2)ccc1/C=N/O	> 12.7	< 4.90	
Cc1cc(C)c(CSCCNC2=CC(=O)CC(c3ccc(Cl)cc3)C2)c(C)c1 (centres undefined)	> 7.97	< 5.10	
COC(=O)c1occc1CSc1nc(NC(=O)c2ccccc2)c2c(C)c(C)oc2n1	> 10	< 5.00	
COc1ccc(-c2nn(-c3ccccc3)cc2/C=C/C(=O)Nc2nc3c(C)cccc3s2)cc1OC	> 10	5.17	
O=C1/C(=N\O)c2ccccc2N1Cc1cc(C(F)(F)F)cc(C(F)(F)F)c1	2.62		pIC50 (HEPG2TOX_HILL_SLOPE 1.63, HEPG2TOX_R_SQUARED 0.96, PBLUC_HILL_SLOPE 1.81, PBLUC_R_SQUARED 0.672, read-out: LUCIFERASE INFECTION ASSAY - IC50): 6.11
COc1ccc(C2CCCN2Cc2cc(=O)oc3cc(C)c(Cl)cc23)c(OC)c1 (centres undefined)	> 10		pIC50 (PBLUC_HILL_SLOPE 2.17, PBLUC_R_SQUARED 0.455, read-out: LUCIFERASE INFECTION ASSAY - IC50): 5.19
FC(F)(F)Oc1cccc(-c2cnc3ccc(-c4cccs4)nn23)c1	7.53		pIC50 (PBLUC_HILL_SLOPE 4.13, PBLUC_R_SQUARED 0.323, read-out: LUCIFERASE INFECTION ASSAY - IC50): 5.35
COc1cc(Nc2nccc3c2cc(-c2ccc(C(=O)N(C)C)cc2)n3C)cc(C(F)(F)F)c1	4.64		pIC50 (PBLUC_HILL_SLOPE 8.8, PBLUC_R_SQUARED 0.371, read-out: LUCIFERASE INFECTION ASSAY - IC50): 5.44

SMILES	IC90 [µM]	pIC50 [1]	also measured
COC(=O)c1c(NC(=O)c2ccoc2)c2cc(NCC3CC=CCC3)cnc2n1CC(C)C (centres undefined)	> 7.32		pIC50 (FFLUC_HILL_SLOPE 3.67, FFLUC_R_SQUARED 0.106, read-out: LUCIFERASE INFECTION ASSAY - IC50): < 5.14
O=C(CNc1cccc(S(=O)(=O)N2CCCCC2)c1)NC(=O)NC1CCCC1	> 10		pIC50 (HEPG2TOX_HILL_SLOPE 4.49, HEPG2TOX_R_SQUARED 0.873, PBLUC_HILL_SLOPE 2.27, PBLUC_R_SQUARED 0.353, read-out: LUCIFERASE INFECTION ASSAY - IC50): 5.13
COc1ccc(CNc2ncnc3scc(-c4ccccc4)c23)cc1OC	9.56		pIC50 (HEPG2TOX_HILL_SLOPE 0.633, HEPG2TOX_R_SQUARED 0.925, PBLUC_HILL_SLOPE 1.59, PBLUC_R_SQUARED 0.666, read-out: LUCIFERASE INFECTION ASSAY - IC50): 5.62
N#Cc1cccc(/C=C/C(=O)c2ccc(S(=O)(=O)N3CCCC3)cc2)c1	> 10	< 5.00	
CN(CC(=O)Nc1c(Cl)cccc1Cl)C(=O)c1cccc(Oc2cccc(C(F)(F)F)c2)c1	6.4		pIC50 (PBLUC_HILL_SLOPE 97.2, PBLUC_R_SQUARED 0.277, read-out: LUCIFERASE INFECTION ASSAY - IC50): 5.20
Cc1ccc(S(=O)(=O)Nc2ccccc2-c2nnc(-c3ccc(C(C)(C)C)cc3)o2)cc1	> 7.37		pIC50 (HEPG2TOX_HILL_SLOPE 0.544, HEPG2TOX_R_SQUARED 0.0439, read-out: LUCIFERASE INFECTION ASSAY - IC50): < 5.13
Fc1ccc(Nc2ncnc3c2cnn3Cc2ccc(Cl)cc2)cc1	9.37		pIC50 (PBLUC_HILL_SLOPE 4.8, PBLUC_R_SQUARED 0.59, read-out: LUCIFERASE INFECTION ASSAY - IC50): 5.23
Cc1ccc(N(CC(=O)Nc2ccc(Cl)cc2)S(C)(=O)=O)cc1Cl	> 8.52		pIC50 (HEPG2TOX_HILL_SLOPE 0.0682, HEPG2TOX_R_SQUARED 0.0747, PBLUC_HILL_SLOPE 6.57, PBLUC_R_SQUARED 0.017, read-out: LUCIFERASE INFECTION ASSAY - IC50): < 5.07
CS(=O)(=O)c1ccc(-c2cnc3c(NC=O)cc(-c4ccccc4)cn23)cc1	> 8.43		pIC50 (PBLUC_HILL_SLOPE 4.26, PBLUC_R_SQUARED 0.756, read-out: LUCIFERASE INFECTION ASSAY - IC50): 5.19
Cc1ccn2c(=O)cc(CN3C(=O)NC4(CCCc5ccccc54)C3=O)nc2c1 (centres undefined)	> 10		pIC50 (PBLUC_HILL_SLOPE 16.8, PBLUC_R_SQUARED 0.349, read-out: LUCIFERASE INFECTION ASSAY - IC50): 5.03
O=C(NC1CCCC1)c1ccc(-c2cn3c(-c4ccc5ncccc5c4)cnc3cn2)cc1	> 7.61	< 5.12	
CN(Cc1nc2ccccc2s1)Cn1cnc2c(=O)n(C)c(=O)n(C)c21	> 10		pIC50 (PBLUC_HILL_SLOPE 0.862, PBLUC_R_SQUARED 0.121, read-out: LUCIFERASE INFECTION ASSAY - IC50): 5.01
CCCC1C/C(=C/c2ccc(C(=O)NC)cc2)C(=O)/C(=C/c2ccc(C(=O)NC)cc2)C1 (centres undefined)	3.86	5.48	
C#CCOc1ccccc1/C=C1\SC(NC2CCCCC2)=NC1=O	0.4		pIC50 (HEPG2TOX_HILL_SLOPE 10.3, HEPG2TOX_R_SQUARED 0.343, PBLUC_HILL_SLOPE 2.57, PBLUC_R_SQUARED 0.554, read-out: LUCIFERASE INFECTION ASSAY - IC50): 6.77
Fc1ccccc1COc1ccccc1CNCc1cccnc1	> 10.2	< 4.99	
Cc1cc(C)cc(Nc2nc(=O)c(Cc3ccc(Cl)cc3)n[nH]2)c1	8.45		pIC50 (FFLUC_HILL_SLOPE 1.04, FFLUC_R_SQUARED 0.238, PBLUC_HILL_SLOPE 2.61, PBLUC_R_SQUARED 0.421, read-out: LUCIFERASE INFECTION ASSAY - IC50): 5.44
CNc1nc2cnc(-c3ccc(F)cc3)cc2n1Cc1ccc(OC)c(OC)c1	3.97		pIC50 (PBLUC_HILL_SLOPE 14.4, PBLUC_R_SQUARED 0.339, read-out: LUCIFERASE INFECTION ASSAY - IC50): 5.47
N#Cc1c(Cl)nsc1NCc1cnn(Cc2ccccc2)c1	1.22		pIC50 (FFLUC_HILL_SLOPE 12.9, FFLUC_R_SQUARED 0.244, HEPG2TOX_HILL_SLOPE 2.27, HEPG2TOX_R_SQUARED 0.949, PBLUC_HILL_SLOPE 20.5, PBLUC_R_SQUARED 0.627, read-out: LUCIFERASE INFECTION ASSAY - IC50): 5.96
Cn1c(CC(=O)NNC(=O)/C=C/c2cccc(C(F)(F)F)c2)nc2ccccc21	3.99	5.47	
O=C(NNc1ccc(I)cc1)c1cc(Cl)cc(Cl)c1	2.86		pIC50 (HEPG2TOX_HILL_SLOPE 2.56, HEPG2TOX_R_SQUARED 0.673, PBLUC_HILL_SLOPE 20.4, PBLUC_R_SQUARED 0.213, read-out: LUCIFERASE INFECTION ASSAY - IC50): 5.59
Cc1cccc(N2CCN(C(=O)c3cccc(OCc4c(C)noc4C)c3)CC2)c1C	> 10		pIC50 (HEPG2TOX_HILL_SLOPE 2.27, HEPG2TOX_R_SQUARED 0.832, PBLUC_HILL_SLOPE 9.75, PBLUC_R_SQUARED 0.237, read-out: LUCIFERASE INFECTION ASSAY - IC50): 5.02
